Drawing on patent US8975417B2, “Pyrazolopyrrolidine derivatives and their use in the treatment of disease” (Novartis AG, priority 2013, dated 2015), this text covers IC (total growth inhibition) for ten compounds.

In this test the test system is MV-4-11 cells. The test is described as follows: Cell growth inhibition assay (CellTiter-Glo), MV-4-11. Format: cell-based. As to conditions: Homo sapiens, MV4-11, read-out: MV-4-11 TGI. The gist of the method: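 Luminescent ATP quantification served as the viability read-out following incubation at 37° C. under 5% CO2. A day-0 reference plate allowed scaling from −100% (medium) to 100% (0.1% DMSO vehicle), with IC50 and TGI fitted by a four-parameter model.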
Consider `Cc1cc(N2C(=O)c3nn(C(=O)N(C)C)c(C)c3[C@H]2c2ccc(Cl)cc2)cn2c(C)nnc12` [Example 150, (R)-4-(4-chlorophenyl)-5-(3,8-dimethyl-[1,2,4]triazolo[4,3-a]pyridin-6-yl)-N,N,3-trimethyl-6-oxo-5,6-dihydropyrrolo[3,4-c]pyrazole-2(4H)-carboxamide], for which the IC (total growth inhibition) came to 0.0863 µM.
For the compound `Cc1nn(C2CNC2)c2c1C(c1ccc(Cl)cc1)N(c1cc(C)c3nnc(C)n3c1)C2=O` (stereo not shown) [Example 151, 1-(azetidin-3-yl)-4-(4-chlorophenyl)-5-(3,8-dimethyl-[1,2,4]triazolo[4,3-a]pyridin-6-yl)-3-methyl-4,5-dihydropyrrolo[3,4-c]pyrazol-6(1H)-one], the IC (total growth inhibition) was determined as 0.368 µM.
With `Cc1cc(N2C(=O)c3nn(C4CNC4)c(C)c3C2c2ccc(Cl)cc2)cn2c(C)nnc12` (stereo not shown) [Example 152, 2-(azetidin-3-yl)-4-(4-chlorophenyl)-5-(3,8-dimethyl-[1,2,4]triazolo[4,3-a]pyridin-6-yl)-3-methyl-4,5-dihydropyrrolo[3,4-c]pyrazol-6(2H)-one], the IC (total growth inhibition) came out at 0.8 µM.
Next, `CC(=O)N1CC(n2nc(C)c3c2C(=O)N(c2cc(C)c(=O)n(C)c2)C3c2ccc(Cl)cc2)C1` (stereo not shown) [Example 153, 1-(1-acetylazetidin-3-yl)-4-(4-chlorophenyl)-5-(1,5-dimethyl-6-oxo-1,6-dihydropyridin-3-yl)-3-methyl-4,5-dihydropyrrolo[3,4-c]pyrazol-6(1H)-one]: 0.161 µM.
Turning to `CC(=O)N1CC(n2nc(C)c3c2C(=O)N(c2cc(C)c4nnc(C)n4c2)C3c2ccc(Cl)cc2)C1` (stereo not shown) [Example 154, 1-(1-acetylazetidin-3-yl)-4-(4-chlorophenyl)-5-(3,8-dimethyl-[1,2,4]triazolo[4,3-a]pyridin-6-yl)-3-methyl-4,5-dihydropyrrolo[3,4-c]pyrazol-6(1H)-one], the IC (total growth inhibition) worked out at 0.112 µM.
Next, `CCOC(=O)N1CC(n2nc(C)c3c2C(=O)N(c2cc(C)c(=O)n(C)c2)C3c2ccc(Cl)cc2)C1` (stereo not shown) [Example 155, Ethyl 3-(4-(4-chlorophenyl)-5-(1,5-dimethyl-6-oxo-1,6-dihydropyridin-3-yl)-3-methyl-6-oxo-5,6-dihydropyrrolo[3,4-c]pyrazol-1(4H)-yl)azetidine-1-carboxylate]: 0.117 µM; `CCOC(=O)N1CC(n2nc(C)c3c2C(=O)N(c2cc(C)c4nnc(C)n4c2)C3c2ccc(Cl)cc2)C1` (stereo not shown) [Example 156, Ethyl 3-(4-(4-chlorophenyl)-5-(3,8-dimethyl-[1,2,4]triazolo[4,3-a]pyridin-6-yl)-3-methyl-6-oxo-5,6-dihydropyrrolo[3,4-c]pyrazol-1(4H)-yl)azetidine-1-carboxylate]: 0.058 µM.
Regarding `Cc1nn(C2CN(C)C2)c2c1C(c1ccc(Cl)cc1)N(c1cc(C)c3nnc(C)n3c1)C2=O` (stereo not shown) [Example 157, 4-(4-chlorophenyl)-5-(3,8-dimethyl-[1,2,4]triazolo[4,3-a]pyridin-6-yl)-3-methyl-1-(1-methylazetidin-3-yl)-4,5-dihydropyrrolo[3,4-c]pyrazol-6(1H)-one], the IC (total growth inhibition) stood at 0.0833 µM.
Next, `Cc1cc(N2C(=O)c3nn(C4CN(C)C4)c(C)c3C2c2ccc(Cl)cc2)cn2c(C)nnc12` (stereo not shown) [Example 158, 4-(4-chlorophenyl)-5-(3,8-dimethyl-[1,2,4]triazolo[4,3-a]pyridin-6-yl)-3-methyl-2-(1-methylazetidin-3-yl)-4,5-dihydropyrrolo[3,4-c]pyrazol-6(2H)-one]: 0.045 µM; `Cc1nn(C[C@H](O)C(F)(F)F)c2c1[C@@H](c1ccc(Cl)cc1)N(c1cc(C)c3nnc(C)n3c1)C2=O` [Example 167, (R)-4-(4-chlorophenyl)-5-(3,8-dimethyl-[1,2,4]triazolo[4,3-a]pyridin-6-yl)-3-methyl-1-((S)-3,3,3-trifluoro-2-hydroxypropyl)-4,5-dihydropyrrolo[3,4-c]pyrazol-6(1H)-one]: 0.0433 µM.
